According to publication PMC9005681, “Use of AD Informer Set compounds to explore validity of novel targets in Alzheimer's disease pathology” (Alzheimer's & Dementia : Translational Research & Clinical …, 2022):
“And” between values parts separate entries of the source, which are not always exact repeats. Identical values can stand only once.

How the values were obtained:
[1] = molecular target: T1, cloned human or rodent CNS receptors, channels, and transporters (PDSP panel) (Homo sapiens, UniProt P08173); assay: PDSP GPCR panel primary binding assays at 10 μM; conditions: primary assay
T1 construct: expressed in transfected cells
T1 sequence (P08173 1-479): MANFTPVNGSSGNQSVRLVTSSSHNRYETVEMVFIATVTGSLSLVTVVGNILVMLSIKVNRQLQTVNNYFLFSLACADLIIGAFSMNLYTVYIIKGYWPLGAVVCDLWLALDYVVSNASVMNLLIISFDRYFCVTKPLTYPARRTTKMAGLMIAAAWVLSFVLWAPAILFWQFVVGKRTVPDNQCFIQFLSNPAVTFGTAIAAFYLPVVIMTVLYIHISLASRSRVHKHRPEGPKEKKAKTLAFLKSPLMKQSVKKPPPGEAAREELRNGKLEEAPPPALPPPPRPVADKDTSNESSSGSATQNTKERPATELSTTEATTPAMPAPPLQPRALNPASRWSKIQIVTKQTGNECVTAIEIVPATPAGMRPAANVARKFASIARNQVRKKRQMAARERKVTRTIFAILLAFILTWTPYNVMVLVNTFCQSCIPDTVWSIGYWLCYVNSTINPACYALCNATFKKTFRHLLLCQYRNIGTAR
Procedure: (§1) GPCR panel: Screening against the receptors within the PDSP panel offers an assessment of off-target pharmacological activity at cloned human or rodent CNS receptors, channels, and transporters that could confound CNS-related phenotypes. A total of 46–47 primary binding assays were run in quadruplicate on these compounds at 10 μM, with follow-up secondary binding assays in 11-point dose-response in triplicate for select compounds versus select receptors. Secondary binding assays were executed for all receptors where test compound displaced an average of >50% of radio-labeled standard ligand. As an exception, no secondary assays were carried out for H3, PBR, or GABAA. […]

[2] = molecular target: T2, cloned human or rodent CNS receptors, channels, and transporters (PDSP panel) (Homo sapiens, UniProt P28222); assay: PDSP GPCR panel primary binding assays at 10 μM; conditions: primary assay
T2 construct: expressed in transfected cells
Procedure: as §1

[3] = molecular target: T3, cloned human or rodent CNS receptors, channels, and transporters (PDSP panel) (Homo sapiens, UniProt P41595); assay: PDSP GPCR panel primary binding assays at 10 μM; conditions: primary assay
T3 construct: expressed in transfected cells
Procedure: as §1

[4] = molecular target: T4, cloned human or rodent CNS receptors, channels, and transporters (PDSP panel) (Homo sapiens, UniProt P46098); assay: PDSP GPCR panel primary binding assays at 10 μM; conditions: primary assay
T4 construct: expressed in transfected cells
T4 sequence (P46098 24-478): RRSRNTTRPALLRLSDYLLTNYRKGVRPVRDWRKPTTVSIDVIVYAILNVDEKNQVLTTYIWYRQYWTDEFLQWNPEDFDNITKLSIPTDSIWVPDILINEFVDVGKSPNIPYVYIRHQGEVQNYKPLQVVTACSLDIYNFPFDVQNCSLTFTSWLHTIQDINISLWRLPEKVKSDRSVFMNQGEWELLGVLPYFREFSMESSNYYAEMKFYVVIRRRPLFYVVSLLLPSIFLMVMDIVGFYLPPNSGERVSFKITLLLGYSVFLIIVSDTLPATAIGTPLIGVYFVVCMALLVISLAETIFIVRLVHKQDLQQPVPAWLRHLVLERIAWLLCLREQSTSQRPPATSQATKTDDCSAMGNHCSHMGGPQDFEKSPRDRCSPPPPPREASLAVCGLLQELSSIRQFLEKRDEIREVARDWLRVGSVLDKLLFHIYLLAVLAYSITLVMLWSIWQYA
Procedure: as §1

[5] = molecular target: T5, cloned human or rodent CNS receptors, channels, and transporters (PDSP panel) (Homo sapiens, UniProt P47898); assay: PDSP GPCR panel primary binding assays at 10 μM; conditions: primary assay
T5 construct: expressed in transfected cells
Procedure: as §1

[6] = molecular target: T6, cloned human or rodent CNS receptors, channels, and transporters (PDSP panel) (Homo sapiens, UniProt P50406); assay: PDSP GPCR panel primary binding assays at 10 μM; conditions: primary assay
T6 construct: expressed in transfected cells
Procedure: as §1

[7] = Snapshot IV PK in CD1 mice; format: in vivo
Procedure: PK data: For snapshot PK studies, pooled plasma was analyzed at 0.5h, 1h, 2h, and 4h following
a single IV dose (3 mg/kg) in CD1 mice (2 mice per cohort) for each compound (Table 2). […]

cellular system = tested on: cellular system; parameters: method as in column References for potency and dosing (the 5th table c13); conditions: published data; References for potency and dosing; cited from earlier work
[8] = aqueous, neutral pH (7.4); cited from earlier work

T2 sequence (P28222 whole entry): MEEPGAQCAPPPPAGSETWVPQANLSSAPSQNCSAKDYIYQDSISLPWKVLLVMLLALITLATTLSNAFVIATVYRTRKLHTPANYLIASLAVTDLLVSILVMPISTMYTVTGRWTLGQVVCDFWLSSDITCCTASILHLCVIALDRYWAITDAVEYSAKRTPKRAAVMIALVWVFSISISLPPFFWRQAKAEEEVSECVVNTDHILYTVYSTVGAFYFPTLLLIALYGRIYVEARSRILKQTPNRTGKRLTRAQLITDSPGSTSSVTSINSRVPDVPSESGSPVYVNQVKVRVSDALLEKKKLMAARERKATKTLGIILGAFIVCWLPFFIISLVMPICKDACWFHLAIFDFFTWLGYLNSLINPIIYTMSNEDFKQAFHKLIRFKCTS
T5 sequence (P47898 whole entry): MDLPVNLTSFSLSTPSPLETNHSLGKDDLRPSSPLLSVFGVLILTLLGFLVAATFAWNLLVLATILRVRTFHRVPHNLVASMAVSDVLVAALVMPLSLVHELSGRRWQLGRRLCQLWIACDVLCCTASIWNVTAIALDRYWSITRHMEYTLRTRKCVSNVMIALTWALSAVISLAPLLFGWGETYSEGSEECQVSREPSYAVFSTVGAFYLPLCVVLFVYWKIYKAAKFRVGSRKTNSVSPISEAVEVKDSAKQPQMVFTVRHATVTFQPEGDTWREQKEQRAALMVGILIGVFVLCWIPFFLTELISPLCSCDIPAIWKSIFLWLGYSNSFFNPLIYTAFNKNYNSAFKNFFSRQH
T6 sequence (P50406 whole entry): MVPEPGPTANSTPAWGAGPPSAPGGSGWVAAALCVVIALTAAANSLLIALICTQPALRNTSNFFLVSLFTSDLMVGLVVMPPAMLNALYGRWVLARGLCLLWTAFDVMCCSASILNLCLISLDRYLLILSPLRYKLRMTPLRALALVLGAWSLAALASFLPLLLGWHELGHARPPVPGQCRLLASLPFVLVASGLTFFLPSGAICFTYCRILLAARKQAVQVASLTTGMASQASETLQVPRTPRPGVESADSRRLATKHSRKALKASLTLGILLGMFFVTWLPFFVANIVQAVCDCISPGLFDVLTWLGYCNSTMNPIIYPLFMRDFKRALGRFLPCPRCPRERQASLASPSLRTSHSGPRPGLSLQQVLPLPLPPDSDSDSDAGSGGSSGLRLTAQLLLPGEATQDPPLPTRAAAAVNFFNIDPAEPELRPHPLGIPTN
T3 sequence (P41595 whole entry): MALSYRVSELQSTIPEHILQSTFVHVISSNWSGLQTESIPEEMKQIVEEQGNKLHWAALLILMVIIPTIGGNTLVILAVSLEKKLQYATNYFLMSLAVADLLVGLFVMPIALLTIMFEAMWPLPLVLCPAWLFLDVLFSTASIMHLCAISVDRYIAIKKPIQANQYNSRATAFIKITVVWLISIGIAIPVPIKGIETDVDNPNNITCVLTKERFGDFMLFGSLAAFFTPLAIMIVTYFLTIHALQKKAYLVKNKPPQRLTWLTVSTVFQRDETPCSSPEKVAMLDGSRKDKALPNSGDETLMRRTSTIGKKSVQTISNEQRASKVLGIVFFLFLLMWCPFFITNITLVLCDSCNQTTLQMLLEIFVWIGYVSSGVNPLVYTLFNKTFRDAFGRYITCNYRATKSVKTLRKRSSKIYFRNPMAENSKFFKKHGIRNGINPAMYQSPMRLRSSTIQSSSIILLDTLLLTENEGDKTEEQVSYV

## CCC(=O)N1CCC(NC(=O)Nc2ccc(OC(F)(F)F)cc2)CC1 [UNC10302681A, TPPU]
[1]; M4, mean inhibition
  Mean %: 27.22%
[1]; M4, replicate 1
  Inhibition 1: 20.33%
[1]; M4, replicate 2
  Inhibition 2: 6.55%
[1]; M4, replicate 3
  Inhibition 3: 30.66%
[1]; M4, replicate 4
  Inhibition 4: 51.34%
[2]; 5-HT1B, mean inhibition
  Mean %: -0.64%
[2]; 5-HT1B, replicate 1
  Inhibition 1: 7.08%
[2]; 5-HT1B, replicate 2
  Inhibition 2: 0.59%
[2]; 5-HT1B, replicate 3
  Inhibition 3: -3.14%
[2]; 5-HT1B, replicate 4
  Inhibition 4: -7.08%
[3]; 5-HT2B, mean inhibition
  Mean %: 40.75%
[3]; 5-HT2B, replicate 1
  Inhibition 1: 68.75%
[3]; 5-HT2B, replicate 2
  Inhibition 2: 29.73%
[3]; 5-HT2B, replicate 3
  Inhibition 3: 25.12%
[3]; 5-HT2B, replicate 4
  Inhibition 4: 39.38%
[4]; 5-HT3, mean inhibition
  Mean %: 17.23%
[4]; 5-HT3, replicate 1
  Inhibition 1: 6.76%
[4]; 5-HT3, replicate 2
  Inhibition 2: 16.16%
[4]; 5-HT3, replicate 3
  Inhibition 3: 12.2%
[4]; 5-HT3, replicate 4
  Inhibition 4: 33.8%
[5]; 5-HT5A, mean inhibition
  Mean %: -10.71% and -8.22%
[5]; 5-HT5A, replicate 1
  Inhibition 1: 25.37% and 9.24%
[5]; 5-HT5A, replicate 2
  Inhibition 2: -13.71% and -7.98%
[5]; 5-HT5A, replicate 3
  Inhibition 3: -53.57% and -12.99%
[5]; 5-HT5A, replicate 4
  Inhibition 4: -0.94% and -21.14%
[6]; 5-HT6, mean inhibition
  Mean %: -0.91%
[6]; 5-HT6, replicate 1
  Inhibition 1: 25.92%
[6]; 5-HT6, replicate 2
  Inhibition 2: -7.74%
[6]; 5-HT6, replicate 3
  Inhibition 3: -9.33%
[6]; 5-HT6, replicate 4
  Inhibition 4: -12.5%
[7]; CD1, mouse, plasma, iv, 3 mg/kg
  clearance: 1.3 mL/min/kg
[7]; CD1, plasma, mouse, 3.0 mg/kg
  Cmax: 2140 ng/mL
  half-life: 13.8 h
[7]; CD1, plasma, mouse, 3.0 mg/kg, read-out: Vss
  Vd: 1.55 L/kg
[7]; mouse, 3.0 mg/kg
  CL: 1.31 mL/min/kg
Cellular system
  Reported as cell active (<10 μM): Y (Published data supports that the compound is active in a cellular system when dosed at 10 μM (Y/N))

## CCCCNc1ncc2c(-c3ccc(CN4CCN(C)CC4)cc3)cn([C@H]3CC[C@H](O)CC3)c2n1 [UNC2025C, UNC2025]
[1]; Receptor M4, 10 μM
  Inhibition 1: 21.02%
  Inhibition 2: 3.79%
  Inhibition 3: -16.19%
  Inhibition 4: 18.49%
[1]; Receptor M4, 10 μM, mean of Inhibition 1-4
  Mean %: 6.78%
[2]; Receptor 5-HT1B, 10 μM
  Inhibition 1: 31.06%
  Inhibition 2: 11.01%
  Inhibition 3: 10.42%
  Inhibition 4: 12.97%
[2]; Receptor 5-HT1B, 10 μM, mean of Inhibition 1-4
  Mean %: 16.37%
[3]; Receptor 5-HT2B, 10 μM
  Inhibition 1: 1.21%
  Inhibition 2: 8.76%
  Inhibition 3: -7.6%
  Inhibition 4: 18.41%
[3]; Receptor 5-HT2B, 10 μM, mean of Inhibition 1-4
  Mean %: 5.2%
[4]; Receptor 5-HT3, 10 μM
  Inhibition 1: 11.35%
  Inhibition 2: 35.98%
  Inhibition 3: 21.68%
  Inhibition 4: 26.58%
[4]; Receptor 5-HT3, 10 μM, mean of Inhibition 1-4
  Mean %: 23.9%
[5]; Receptor 5-HT5A, 10 μM
  Inhibition 1: 24.59%
  Inhibition 2: 14.3%
  Inhibition 3: 9.95%
  Inhibition 4: 29.74%
[5]; Receptor 5-HT5A, 10 μM, mean of Inhibition 1-4
  Mean %: 19.65%
[6]; Receptor 5-HT6, 10 μM
  Inhibition 1: -20.29%
  Inhibition 2: 0.2%
  Inhibition 3: -8.54%
  Inhibition 4: -2.02%
[6]; Receptor 5-HT6, 10 μM, mean of Inhibition 1-4
  Mean %: -7.66%
Cellular system
  Reported as cell active (<10 μM): Y (Published data supports that the compound is active in a cellular system when dosed at 10 μM (Y/N))
[8]
  Kinetic solubility: 43.4 µM
